Laboratory results published in patent US20190166840A1, “SUBSTITUTED PYRAZOLINYL DERIVATIVES, PROCESSES FOR THEIR PREPARATION AND THEIR USE AS HERBICIDES AND/OR PLANT GROWTH REGULATORS” (BAYER CROPSCIENCE AKTIENGESELLSCHAFT, priority 2016, published 2019).

Columns and labels:
Type in all cases: in vivo
Conditions in all cases: application rate 1280 g/ha, scored visually after about 3 weeks
[1] = system: Matricaria inodora (=Tripleurospermum maritimum subsp. inodorum); test: Pre-emergence herbicidal action, MATIN
Text: (§1) Pre-Emergence Herbicidal Action Seeds of mono- and dicotyledonous weed plants or crop plants were placed in sandy loam in wood fibre pots and covered with soil. The formulated compounds of the general formula (I) according to the invention were then applied to the surface of the covering soil in the form of an aqueous suspension or emulsion at an application rate of 600 l of water/ha (converted) with addition of 0.2% wetting agent. After the treatment, the pots were placed in a greenhouse and kept under good growth conditions for the test plants. After about 3 weeks, the effect was scored visually in percent in comparison to untreated controls. For example, 100% activity=the plants have died, 50% herbicidal activity or damage=plants reduced to 50% or plant material reduced by 50%, 0% activity=like control plants. Here, in the biological tests, the compounds of the general formula (I) according to the invention were in each case employed in a formulation, with the numerations of Tables I.1 to I.77 also applying here. Here, the herbicidal action of the compounds of the general formula (I) according to the invention was examined for the following harmful plants: MATIN=Matricaria inodora (=Tripleurospermum maritimum subsp. inodorum) The respective herbicidal action was in each case determined at the same point in time after application of the formulation in question, i.e. damage of the harmful plant in question in %. Pre-emergence herbicidal action of the compounds of the general formula (I) according to the invention: […]

Viola tricolor = test: Pre-emergence herbicidal action, VIOTR
Text: as §1, with “VIOTR=Viola tricolor” for “MATIN=Matricaria inodora (=Tripleurospermum maritimum subsp. inodorum)”

[2] = system: Polygonum convolvulus (=Fallopia convolvulus); test: Pre-emergence herbicidal action, POLCO
Text: as §1, with “POLCO=Polygonum convolvulus (=Fallopia convolvulus)” for “MATIN=Matricaria inodora (=Tripleurospermum maritimum subsp. inodorum)”

Alopecurus myosuroides = test: Pre-emergence herbicidal action, ALOMY
Text: as §1, with “ALOMY=Alopecurus myosuroides” for “MATIN=Matricaria inodora (=Tripleurospermum maritimum subsp. inodorum)”

Hordeum murinum = test: Pre-emergence herbicidal action, HORMU
Text: as §1, with “HORMU=Hordeum murinum” for “MATIN=Matricaria inodora (=Tripleurospermum maritimum subsp. inodorum)”

Row | Compound | Pre-emergence herbicidal action MATIN, damage of the harmful plant [1] [%] | Pre-emergence herbicidal action VIOTR, damage of the harmful plant (Viola tricolor) [%] | Pre-emergence herbicidal action POLCO, damage of the harmful plant [2] [%] | Pre-emergence herbicidal action ALOMY, damage of the harmful plant (Alopecurus myosuroides) [%] | Pre-emergence herbicidal action HORMU, damage of the harmful plant (Hordeum murinum) [%]
1 | CCC(=O)OC1C(C)=C(C)C(=O)N1C1=NN(c2ccccc2)CC1 (stereo not drawn) [I.23-621] | 50 | 70 | 100 | 0 | 0
2 | CCC(=O)OC1C(C)=C(C)C(=O)N1C1=NN(c2ccccc2)C(C(F)(F)F)C1 (stereo not drawn) [I.23-1413] | 70 | 100 | 80 | 0 | 30
3 | CCC(=O)OC1C(C)=C(Cl)C(=O)N1C1=NN(C)C(c2ccccc2)C1 (stereo not drawn) [I.24-1126] | 90 | 10 | 0 | 10 | 20
4 | CC1=C(C)C(O)N(C2=NN(c3ccccn3)C(C)(C)C2)C1=O (stereo not drawn) [I.2-132] | 0 | 80 | 40 | 70 | 0
5 | CCC(=O)OC1C(C)=C(C)C(=O)N1C1=NN(c2ccccn2)C(C)(C)C1 (stereo not drawn) [I.23-132] | 40 | 70 | 0 | 60 | 20
6 | CC1=C(C)C(O)N(C2=NN(c3ccccc3)C(C(F)(F)F)C2)C1=O (stereo not drawn) [I.2-1413] | 100 | 100 | 100 | 70 | 60
